According to publication PMC12794186, “Covalent Alkynylpyridopyrimidinones Targeting Cysteine 775 of the Epidermal Growth Factor Receptor Overcome Resistance to Current Therapies” (Journal of Medicinal Chemistry, 2025):
Where two headings read alike, the source gives them in different places. One block for each molecule: values may come before it.

Assays:
[1] = target: mLTC-EGFR (Homo sapiens, UniProt P00533, C797S/L858R/T790M); test: Intact protein mass spectrometry, covalent adduct formation; format: binding; conditions: for covalent adduct formation, in words: intact protein mass spectrometry; for Protein adduct formation: adduct stoichiometry by intact protein mass spectrometry
[2] = target: T1, wild-type EGFR (WT-EGFR) (Homo sapiens, UniProt P00533); test: TR-FRET fluorescent probe displacement assay; format: binding
T1 construct: made in house; host or cells: SF9 insect cells (MultiBac)
Experimental: Compounds (dissolved to 100 mM in DMSO) were dispensed into black low volume 384 well assay plates (Corning) over a final concentration range of 100,000, 30,000, 10,000, 3000, 1000, 300, 100, 30, 10, and 3 nM using an Echo 550 (Labcyte). Positive control compound and DMSO as a negative control were dispensed into the first and last well, respectively. Each well was backfilled with DMSO to a final volume of 200 nL, resulting in final assay DMSO concentrations of 1%. […] The data were analyzed using Graphpad Prism/Dotmatics Studies Software. Assays conducted in technical replicate and repeated as a biological duplicate.

[3] = system: EGFR phosphorylation (Tyr1068) in H1975 (L858R, T790M) cells; test: Western blot of EGFR phosphorylation; format: cell-based
[4] = system: EGFR; test: Time-course of EGFR modification by mass spectrometry; format: binding; conditions: within 10 min
Experimental: Peptides were detected in positive ion mode using electrospray ionization with nebulizer pressure of 35 psi, drying gas flow of 13 L/min and source gas temperature of 290 °C. Sheath gas temperature of 275 °C and gas flow of 12 L/min, capillary voltage of 4000 V and nozzle voltage of 300 V were also applied. Mass spectra were acquired using MassHunter Acquisition software (version B.08.00) over 100–1700 m/z range, at a rate of 5 spectra/s and 200 ms/spectrum, using standard mass range mode (3200 m/z) with extended dynamic range (2 GHz) and collection of both centroid and profile data. MS/MS fragmentation spectra were acquired over 100–3000 m/z range, at a rate of 3 spectra/s and 333.3 ms/spectrum. Acquired MS and MS/MS spectra were analyzed using Agilent MassHunter BioConfirm software (version B.10.00) against known amino acid sequences for EGFR for confirmation of covalent binding at Cys775. For the time course study, 150 μL EGFR (0.15 mg/mL) was incubated with compound 25328 to final concentration of 15 μM in a buffer solution of 20 mM Tris pH 8, 150 mM NaCl, 4% glycerol, 1 mM TCEP, 1% DMSO. […] Intact protein analysis perform as detailed above.

[5] = system: EGFR phosphorylation (Tyr1068) in H1975 (L858R, T790M) cells; test: HTRF cellular EGFR phosphorylation; format: cell-based; conditions: Homo sapiens, NCI-H1975; read-out: pEGFR IC50 by HTRF
Experimental: Cells were plated at 20,000 cells per well in 96-well plates and placed at 37 °C with 5% CO2. Compounds were reconstituted in DMSO. Once adhered (after 24 h), cells were treated with compounds at a final concentration of 0.1% DMSO in media. Compounds were added to duplicate wells and incubated 37 °C for 3 h with 5% CO2. For A431 cells 0.5 h before the end of incubation; 100 ng/mL of EGF (Thermo Fisher, Cat. No. PHG0311) was added to all compound-treated cells as well as control. Compound and media were removed from the cells, and then 50 μL of HTRF lysis buffer was added (lysis buffer was diluted from 4× stock to 1× in deionized (DI) water, with 1% blocking agent also added). Cells were lysed on a plate shaker (2000 rpm) for 30 min at room temperature. pEGFR expression was assessed using the Human Phospho-EGFR (Tyr1068) cellular detection kit (Revvity, Cat. No. 64EG1PEH). Total EGFR expression was monitored using the Human Total EGFR cellular detection kit (Revvity, Cat. No. 64NG1PEH) as per the manufacturer’s instructions. […] Results were calculated as the ratio of pEGFR/total EGFR and then the percentage of 0 μM control.

[6] = target: recombinant doubly mutated EGFR L858R, T790M kinase domain (mLT-EGFR) (Homo sapiens, UniProt P00533, L858R/T790M); test: Kinetic analysis (AssayQuant); format: biochemical; conditions: for Ki: read-out: KI app
Experimental: Measurement of K I, K inact and K inact/K I was carried out by AssayQuant Technologies inc.

[7] = system: BAF EGFR L858R/C775S cells; conditions: BAF EGFR cell line; published compound, reference number not given; cited from earlier work
[8] = system: BAF EGFR L858R cells; conditions: BAF EGFR cell line; published compound, reference number not given; cited from earlier work
[9] = TR-FRET, read-out: WT-EGFR IC50
[10] = supplementary csv, read-out: WT pIC50 (converted)
[11] = TR-FRET, n > 3, read-out: WT-EGFR IC50
[12] = TR-FRET, n > 3, read-out: WT-EGFR pIC50 ± std dev (converted)

Compound: C#Cc1cc(-c2cnn3ccccc23)nc(Nc2ccccc2)n1 [Compound 2, 4-Ethynyl-N-phenyl-6-(pyrazolo[1,5-a]pyridin-3-yl)pyrimidin-2-amine]
covalent adduct formation, in words [1]: addition of a single adduct by mass spectrometry and a small amount of double adduct
IC50 [2, 9]: 48 ± 16 µM
IC50 [2, 10]: 50.1 µM

Compound: C#Cc1cc(=O)n(-c2ccccc2)c2nc(Nc3ccccc3OC)ncc12 [Compound 3, 5-Ethynyl-2-[(2-methoxyphenyl)amino]-8-phenylpyrido[2,3-d]pyrimidin-7-one]
inhibition of pEGFR (Western blot) ([3]; H1975, 10 μM, 4 h): showed inhibition of pEGFR
protein modified [4]: Over 50%
IC50 [5]: > 3000 nM

Compound: C#Cc1cc(=O)n(-c2ccccc2)c2nc(Nc3ccc(N4CCOCC4)cc3OC)ncc12 [Compound 5, 5-Ethynyl-2-((2-methoxy-4-morpholinophenyl)amino)-8-phenylpyrido[2,3-d]pyrimidin-7(8H)-one]
IC50 [2, 11]: 0.057 µM
IC50 [2, 12]: 0.0631 µM

Compound: C#Cc1cc(=O)n(-c2ccccc2)c2nc(Nc3ccc(N4CCOCC4)cc3)ncc12 [Compound 6, 5-Ethynyl-2-((4-morpholinophenyl)amino)-8-phenylpyrido[2,3-d]pyrimidin-7(8H)-one]
kinact [6]: 0.0061 ± 0.00035 s⁻¹
kinact/KI [6]: 3.7e+08 ± 3.8e+06 M⁻¹ s⁻¹
Ki [6]: 16 ± 1.1 nM
IC50 [2, 11]: 0.069 µM
IC50 [2, 12]: 0.0631 µM

Compound: C#Cc1cc(=O)n(-c2ccccc2)c2nc(Nc3ccc(N4CCN(C)CC4)cc3OC)ncc12 [Compound 8, 5-Ethynyl-2-(2-methoxy-4-(4-methylpiperazine-1-ylphenyl)amino)-8-phenylpyrido[2,3-d]pyrimidin-7(8H)-one]
IC50 [2, 11]: 0.1 µM
IC50 [2, 12]: 0.1 µM
IC50 [2, 10]: 0.1 µM

Compound: C#Cc1cc(=O)n(-c2ccccc2)c2nc(Nc3ccc(N4CCN(C)CC4)cc3)ncc12 [Compound 9, 5-Ethynyl-2-((4-(4-methylpiperazin-1-yl)phenyl)amino)-8-phenylpyrido[2,3-d]pyrimidin-7(8H)-one]
kinact [6]: 0.02 ± 0.0041 s⁻¹
kinact/KI [6]: 8.2e+08 ± 8.3e+06 M⁻¹ s⁻¹
Ki [6]: 24 ± 5.2 nM
IC50 [2, 11]: 0.077 µM
IC50 [2, 12]: 0.0794 µM

Compound: C#Cc1cc(=O)n(-c2ccccc2)c2nc(Nc3ccc(N(C)C(=O)CCOC)cc3OC)ncc12 [Compound 11, N-(4-((5-Ethynyl-7-oxo-8-phenyl-7,8-dihydropyrido[2,3-d]pyrimidin-2-yl)amino)-3-methoxyphenyl)-3-methoxy-N-methylpropanamide]
IC50 [2, 11]: 4.1 µM
IC50 [2, 12]: 3.16 µM

Compound: C=CC(=O)Nc1cc(C(=O)Nc2nc3cccc(Cl)c3n2[C@@H]2CCCCN(C(=O)C=C)C2)cs1 [dual C775–C797 inhibitor]
GI50 [7]: 20 nM
GI50 [8]: 10 nM

Compound: C=CC(=O)Nc1cc(Nc2nccc(-c3cn(C)c4ccccc34)n2)c(OC)cc1N(C)CCN(C)C [osimertinib, reference compound]
inhibition of EGFR and ERK1/2 phosphorylation (Western blot) ([3]; H1975, 4 h exposure, concentration series): inhibition of EGFR and ERK1/2 phosphorylation was evident

More lines, now with the values ahead:

kinact [6]: 0.0035 ± 0.00072 s⁻¹
kinact/KI [6]: 1.8e+07 ± 480000 M⁻¹ s⁻¹
Ki [6]: 200 ± 45 nM
IC50 [2, 11]: 3.3 µM
IC50 [2, 12]: 3.16 µM
Compound: C#Cc1cc(=O)n(-c2ccccc2)c2nc(Nc3ccc(N(C)C(=O)COC)cc3OC)ncc12 [Compound 10, N-(4-((5-Ethynyl-7-oxo-8-phenyl-7,8-dihydropyrido[2,3-d]pyrimidin-2-yl)amino)-3-methoxyphenyl)-2-methoxy-N-methylacetamide]

kinact [6]: 0.0051 ± 0.00061 s⁻¹
kinact/KI [6]: 3.3e+07 ± 440000 M⁻¹ s⁻¹
Ki [6]: 160 ± 20 nM
IC50 [2, 11]: 5.1 µM
IC50 [2, 12]: 5.01 µM
Compound: C#Cc1cc(=O)n(-c2ccccc2)c2nc(Nc3ccc(N(C)C(=O)CN(C)C)cc3OC)ncc12 [Compound 12, 2-(Dimethylamino)-N-(4-((5-ethynyl-7-oxo-8-phenyl-7,8-dihydropyrido[2,3-d]pyrimidin-2-yl)amino)-3-methoxyphenyl)-N-methylacetamide]

Protein adduct formation [1]: 1
Compound: C=CC(=O)Nc1cccc(-c2nn(C)c3ncnc(N)c23)c1 [Compound S1]

Protein adduct formation [1]: 1-3
Compound: C#CC(=O)Nc1cccc(-c2nn(C)c3ncnc(N)c23)c1 [Compound S2]

Protein adduct formation [1]: 0
Compound: C=CC(=O)NCc1cccc(-c2nn(C)c3ncnc(N)c23)c1 [Compound S3]

Protein adduct formation [1]: 0
Compound: C=CC(=O)NCc1cc(=O)n(-c2ccccc2)c2nc(Nc3ccccc3OC)ncc12 [Compound S4]

Protein adduct formation [1]: 1-2
Compound: C#CC(=O)NCc1cc(=O)n(-c2ccccc2)c2nc(Nc3ccccc3OC)ncc12 [Compound S5]

Protein adduct formation [1]: 0
Compound: C=CC(=O)NCCOc1ccc(-c2nn(C)c3ncnc(N)c23)cc1 [Compound S7]

Protein adduct formation [1]: 0-1
Compound: C=CC(=O)Nc1ccccc1Oc1ccc(-c2nn(C)c3ncnc(N)c23)cc1 [Compound S8]

Protein adduct formation [1]: 1-4
Compound: C#CC(=O)Nc1ccccc1Oc1ccc(-c2nn(C)c3ncnc(N)c23)cc1 [Compound S9]

IC50 [2, 12]: 15.8 µM
IC50 [2, 9]: 15 µM
Compound: COc1ccccc1Nc1ncc2ccc(=O)n(-c3ccccc3)c2n1 [Compound S10]

covalent adduct formation, in words [1]: reduced protein modulation
IC50 [2, 12]: > 100 µM
IC50 [2, 9]: > 100 µM
Compound: C=Cc1cc(=O)n(-c2ccccc2)c2nc(Nc3ccccc3OC)ncc12 [Compound S11]

covalent adduct formation, in words [1]: little to no modification
IC50 [2, 12]: > 100 µM
IC50 [2, 9]: > 100 µM
Compound: CC#Cc1cc(=O)n(-c2ccccc2)c2nc(Nc3ccccc3OC)ncc12 [Compound S12]
